Reference: ChEMBL document CHEMBL1201862, “PubChem BioAssay data set” (2004)
Activity calls are given as the source filed them.

Columns and labels:
HEK293 = test: EBV LMP1 TES2 canonical NF-kB signalling blockers – cell-based, HEK293, luciferase, cherry-pick, dose response (AID 588343); type: functional; settings: Homo sapiens
[1] = molecular target: T1, Endoribonuclease toxin MazF (Escherichia coli K-12, UniProt P0AE70); test: activation of MazEF endoribonuclease cleavage – biochemical, fluorescence, single-stranded RNA substrate, uHTS hits, dose response (AID 588481); type: functional
T1 sequence (P0AE70 whole entry): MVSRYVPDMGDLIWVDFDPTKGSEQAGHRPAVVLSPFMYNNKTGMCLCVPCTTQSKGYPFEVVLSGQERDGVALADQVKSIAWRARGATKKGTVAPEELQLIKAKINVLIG

[2] = molecular target: T1, Endoribonuclease toxin MazF; test: substrate-only fluorescence increase artefacts – biochemical, single-stranded RNase substrate, counter-screen for MazEF activator project, dose response (AID 588502); type: functional
Protein Wnt-3a = Protein Wnt-3a (Mus musculus, UniProt P27467); test: antagonism of Wnt3a pathway luciferase reporter – Wnt-LIGHT cells, luminescence, selectivity assay for Gli-SUFU antagonist project, dose response (AID 651570); type: functional; settings: read-out: IC50_Mean;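 further: Wnt-LIGHT reporter cells stimulated with conditioned medium from Wnt3a-producing cells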
Sequence of Protein Wnt-3a (P27467 whole entry): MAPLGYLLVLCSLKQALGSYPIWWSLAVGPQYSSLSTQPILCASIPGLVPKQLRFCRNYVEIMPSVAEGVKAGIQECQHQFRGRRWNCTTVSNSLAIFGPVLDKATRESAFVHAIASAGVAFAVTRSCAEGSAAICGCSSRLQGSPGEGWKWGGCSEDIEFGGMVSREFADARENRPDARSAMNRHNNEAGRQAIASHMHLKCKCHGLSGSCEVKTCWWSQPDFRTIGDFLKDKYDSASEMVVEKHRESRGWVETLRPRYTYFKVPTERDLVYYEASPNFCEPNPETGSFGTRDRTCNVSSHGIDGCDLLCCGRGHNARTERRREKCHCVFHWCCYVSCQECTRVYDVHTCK

[3] = reduction of Shn3 3'UTR-driven luciferase in osteoblasts – cell-based, Clone20 osteoblasts, firefly luciferase, cherry-picked, dose response (AID 624132); type: functional;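 further: firefly luciferase luminescence from reporter carrying the Shn3 3'UTR in osteoblasts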
[4] = loss of viability in HepG2 cells – cell-based, CellTiter-Glo, cherry-picked, cytotoxicity control for Shn3 inhibitor project, dose response (AID 624134); type: functional
[5] = non-specific 3'UTR reporter inhibition in Clone20-Shn3RL – cell-based, Renilla luciferase, cherry-picked, counter-screen for Shn3 inhibitor project, dose response (AID 624133); type: functional
INS1 = test: INS-1E survival protection against cytokine death – cell-based, luminescence, retest, dose response (AID 449756); type: functional; settings: Rattus norvegicus;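 further: cell death triggered by IL-1 beta plus TNF-alpha plus IFN-gamma mixture; protective hits raise ATP signal compared with cytokine alone wells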
Melanocortin receptor 4 = Melanocortin receptor 4 (Homo sapiens, UniProt P32245); type: functional, cell-based;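 further: Cell-based assay with luminescence read-out, confirmatory dose-response testing for agonist activity of biased ligands at MC4R; human U2OS cells with tagged receptor and beta-arrestin; potency of agonists that increase receptor coupling to beta-arrestin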
Sequence of Melanocortin receptor 4 (P32245 whole entry): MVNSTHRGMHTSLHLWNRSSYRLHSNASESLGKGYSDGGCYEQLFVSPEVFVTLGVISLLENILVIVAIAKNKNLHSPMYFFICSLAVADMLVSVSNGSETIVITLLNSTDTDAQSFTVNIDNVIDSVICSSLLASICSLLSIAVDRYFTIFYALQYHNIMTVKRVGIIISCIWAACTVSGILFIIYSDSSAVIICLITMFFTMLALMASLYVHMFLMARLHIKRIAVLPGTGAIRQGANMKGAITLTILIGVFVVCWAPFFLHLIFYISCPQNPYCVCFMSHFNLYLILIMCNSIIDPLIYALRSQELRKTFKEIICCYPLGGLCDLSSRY

SN12K1 = test: cells; type: functional; settings: Homo sapiens
[6] = molecular target: Dual specificity tyrosine-phosphorylation-regulated kinase 1A (Rattus norvegicus, UniProt Q63470); type: biochemical, Homo sapiens
P388/ADR = test: cells; type: functional; settings: Mus musculus
P388 = test: cells; type: functional; settings: Mus musculus
[7] = molecular target: DNA dC->dU-editing enzyme APOBEC-3A (Homo sapiens, UniProt P31941); test: A3A deaminase inhibition for selectivity – biochemical, dose response (AID 504722); type: functional
Sequence of DNA dC->dU-editing enzyme APOBEC-3A (P31941 whole entry): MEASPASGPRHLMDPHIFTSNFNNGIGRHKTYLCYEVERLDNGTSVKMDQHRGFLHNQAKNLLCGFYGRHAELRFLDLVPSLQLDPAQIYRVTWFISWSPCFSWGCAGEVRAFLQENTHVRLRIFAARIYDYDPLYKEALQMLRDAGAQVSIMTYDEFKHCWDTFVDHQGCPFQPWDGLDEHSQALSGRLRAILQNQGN

[8] = molecular target: DNA dC->dU-editing enzyme APOBEC-3G (Homo sapiens, UniProt Q9HC16); test: Dose Response confirmation of small molecule APOBEC3G DNA Deaminase Inhibitors via a fluorescence-based single-stranded DNA deaminase assay. [Related pubchem assays (depositor defined):AID493012, AID493028]; type: functional
Sequence of DNA dC->dU-editing enzyme APOBEC-3G (Q9HC16 whole entry): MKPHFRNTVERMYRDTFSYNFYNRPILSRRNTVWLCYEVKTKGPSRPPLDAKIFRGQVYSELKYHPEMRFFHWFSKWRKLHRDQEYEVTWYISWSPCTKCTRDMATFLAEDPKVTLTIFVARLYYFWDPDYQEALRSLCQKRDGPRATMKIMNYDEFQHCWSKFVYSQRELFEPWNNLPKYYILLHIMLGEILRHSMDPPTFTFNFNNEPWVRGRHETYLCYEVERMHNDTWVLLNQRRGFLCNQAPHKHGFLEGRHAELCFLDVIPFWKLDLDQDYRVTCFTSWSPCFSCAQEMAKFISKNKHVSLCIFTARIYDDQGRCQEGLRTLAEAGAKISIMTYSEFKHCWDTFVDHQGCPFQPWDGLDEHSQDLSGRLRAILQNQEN

**Q.** For `CCN1CCN(Cc2ccc(NC(=O)c3ccc(C)c(NC(=O)c4nccn4C)c3)cc2C(F)(F)F)CC1`, which AC50 (HEK293) is on record?
**A.** The AC50 was 1.56 µM (active).

**Q.** Which AC50 (HEK293) does the source give for `COC(=O)CSc1ncnc2c1sc1nc3c(cc12)COC(C)(C)C3` here?
**A.** The AC50 was 4.32 µM (active).

**Q.** For `O=C1C(Cl)=C(NCCc2ccccc2)C(=O)N1CCc1ccccc1`, which EC50 [1] is on record?
**A.** The EC50 was > 99 µM (inactive).

**Q.** And the EC50 [2]?
**A.** Its EC50 is > 99 µM (inactive).

**Q.** Which results are given for `CN(Cc1nccs1)C(=O)c1cc(COc2cccc3cnccc23)on1`?
**A.** IC50 (Protein Wnt-3a): 1.3 µM (active); AC50 [3]: 2.77 µM (active); AC50 [4]: 48.5 µM (active); AC50 [5]: 1.2 µM (active)

**Q.** For `Cc1sc2ncnc(N3CCN(S(=O)(=O)c4ccc(C(C)(C)C)cc4)CC3)c2c1C`, which IC50 (Protein Wnt-3a) is on record?
**A.** Its IC50 is 6.86 µM (active).

**Q.** And the AC50 (INS1)?
**A.** The AC50 was 3.23 µM (active).

**Q.** For `CC(=O)Nc1cc(-c2cccc(C(=O)N(C)C)c2)cn2c(-c3ccc(F)c(Cl)c3)cnc12`, which EC50 (Melanocortin receptor 4) is on record?
**A.** Its EC50 is > 89.2 µM (inactive).

**Q.** What does the source list for `O=C1C(O)=C(CC=C(Cl)Cl)C(=O)c2ccccc21`?
**A.** GI50 (SN12K1): 1.11 µM (active); AC50 [6]: 4.87 µM (active); GI50 (P388/ADR): 1.6 µM (inactive); GI50 (P388): 1.8 µM (inactive)

**Q.** For `COc1cccc(-c2cnc3c(NC(C)=O)cc(-c4ccc(C(=O)N5CCOCC5)cc4)cn23)c1`, which EC50 (Melanocortin receptor 4) is on record?
**A.** Its EC50 is > 89.2 µM (inactive).

**Q.** Which EC50 [1] does the source give for `Cc1nn(-c2ccccc2)c(O)c1/C=N/c1ccc2[nH]c(O)nc2c1` here?
**A.** Its EC50 is > 99 µM (inactive).

**Q.** And the EC50 [2]?
**A.** The EC50 was > 99 µM (inactive).

**Q.** What does the source list for `Sc1nnc(C2CCCCC2)n1/N=C/c1ccncc1`?
**A.** AC50 (HEK293): 11.5 µM (active); IC50 [7]: > 100 µM (inactive); IC50 [8]: 7.27 µM (active)
